# From patent US9546176B2, “Small molecule bicyclic and tricyclic CFTR correctors” (DISCOVERYBIOMED, INC., priority 2012, dated 2017)
# Biological target: T1, delF508-CFTR (Homo sapiens, UniProt P13569, DEL508-508)
# T1 construct: endogenous in cells; host or cells: CFBE41o- human CF bronchial epithelial cells (delF508 homozygous)
# Assay: SPQ halide-sensitive fluorescence dye assay for rescue of halide efflux (8-point concentration-response)
# Assay type: cell-based
# Settings: not given
# Description: The method of profiling can include detecting the rescue of halide efflux from a cell. The step of detecting a rescue of halide efflux from the cell can be monitored using the halide quenched dye 6-methoxy-N-(3-sulfopropyl)-quinolinium (SPQ, Molecular Probes Inc., Eugene, Oreg.). In this method, cells are treated with a compound as described herein for a period of time (e.g., 48 hours). The rescue or correction of halide efflux is then detected using the SPQ assay with the halide dye. […] Optionally, the halide efflux is chloride efflux. The method of screening can further comprise performing the method with multiple concentrations of the compound.
# The compounds were initially subjected to the SPQ halide-sensitive fluorescence dye profiling assay for rescue or correction of membrane chloride ion permeability or transport with an 8-point concentration-response curve. The EC50 values for the compounds described herein were determined using SPQ (Table 1). The ΔSPQ value was calculated by determining the difference between the maximum and minimum SPQ values for the compounds.
# To perform the SPQ high throughput screening assay, CFBE41o-cells were seeded into 96-well microtiter plates and were loaded with the fluorescent halide-sensitive dye, SPQ, in serum-containing culture medium. Certain wells were loaded with known positive control corrector molecules, including the industry standard Vertex 809 (VX-809; Vertex Pharmaceuticals, Cambridge, Mass.) at 3 μM, which is the maximally effective profiling dose for VX-809. The test compounds were loaded into wells and were tested in triplicate wells at a 10 μM dose and incubated over 48 hours at room temperature. During the 48 hour period, SPQ was absorbed. Plates were washed in a sodium chloride (NaCl) based Ringer and read once over two minutes to set the baseline SPQ fluorescence activity. Then, NaCl was replaced by sodium nitrate (NaNO3) based Ringer. The plates were read twice over four minutes. The primary high throughput screen (HTS) data were analyzed to detect any function of rescued delF508-CFTR under basal conditions. The plate was read up to two times to complete the SPQ HTS assay.
# T1 sequence (P13569 with tags, fused parts or gaps DEL508-508): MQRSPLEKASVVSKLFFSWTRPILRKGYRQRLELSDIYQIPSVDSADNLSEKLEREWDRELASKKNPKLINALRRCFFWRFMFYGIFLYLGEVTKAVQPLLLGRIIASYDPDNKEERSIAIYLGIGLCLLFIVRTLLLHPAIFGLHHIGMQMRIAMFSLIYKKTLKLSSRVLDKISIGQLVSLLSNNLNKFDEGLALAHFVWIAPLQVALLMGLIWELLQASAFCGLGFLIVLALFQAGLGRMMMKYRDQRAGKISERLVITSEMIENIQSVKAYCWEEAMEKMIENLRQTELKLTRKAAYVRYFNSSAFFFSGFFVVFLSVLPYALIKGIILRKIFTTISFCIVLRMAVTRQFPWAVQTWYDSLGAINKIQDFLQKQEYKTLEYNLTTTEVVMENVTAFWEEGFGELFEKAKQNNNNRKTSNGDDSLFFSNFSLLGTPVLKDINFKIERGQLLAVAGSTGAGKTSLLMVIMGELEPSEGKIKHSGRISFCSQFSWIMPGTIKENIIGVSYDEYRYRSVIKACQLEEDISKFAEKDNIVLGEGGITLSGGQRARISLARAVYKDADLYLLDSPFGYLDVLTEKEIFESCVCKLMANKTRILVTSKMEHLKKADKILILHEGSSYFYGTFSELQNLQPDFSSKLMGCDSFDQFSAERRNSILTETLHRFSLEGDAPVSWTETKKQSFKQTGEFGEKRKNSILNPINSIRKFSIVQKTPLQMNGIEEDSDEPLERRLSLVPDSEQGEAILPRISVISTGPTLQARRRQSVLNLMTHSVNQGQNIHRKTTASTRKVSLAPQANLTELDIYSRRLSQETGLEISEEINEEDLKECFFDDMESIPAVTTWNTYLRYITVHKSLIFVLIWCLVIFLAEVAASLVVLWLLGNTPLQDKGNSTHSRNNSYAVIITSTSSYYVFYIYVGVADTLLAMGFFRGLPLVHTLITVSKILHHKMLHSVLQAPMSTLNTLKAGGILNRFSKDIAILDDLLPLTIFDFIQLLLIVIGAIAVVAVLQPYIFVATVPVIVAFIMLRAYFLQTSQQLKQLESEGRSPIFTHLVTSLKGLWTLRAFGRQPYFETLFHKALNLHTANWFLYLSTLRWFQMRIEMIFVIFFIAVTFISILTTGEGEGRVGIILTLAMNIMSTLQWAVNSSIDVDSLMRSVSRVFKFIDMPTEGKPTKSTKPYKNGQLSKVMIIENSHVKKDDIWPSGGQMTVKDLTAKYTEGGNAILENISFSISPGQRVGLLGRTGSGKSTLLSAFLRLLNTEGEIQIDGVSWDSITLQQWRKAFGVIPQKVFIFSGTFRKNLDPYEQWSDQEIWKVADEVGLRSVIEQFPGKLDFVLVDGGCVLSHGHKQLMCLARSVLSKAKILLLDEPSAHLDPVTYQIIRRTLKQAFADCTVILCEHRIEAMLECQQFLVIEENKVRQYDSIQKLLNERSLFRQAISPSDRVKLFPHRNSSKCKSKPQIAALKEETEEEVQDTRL
row,SMILES,EC50 [µM]
1,CC1(C)Cc2c(sc3c2c(=O)n(CCO)c(=O)n3Cc2ccccc2)CO1 [Compound 1],3.5

# Same assay, conditions: CFBE41o- cells, 48 h
SMILES,ΔSPQ (difference between maximum and minimum SPQ values) [RFU],SPQ EC50
CC1(C)Cc2c(sc3c2c(=O)n(CCO)c(=O)n3Cc2ccccc2)CO1 [Compound 1],8345,–
C=CCN1N=C(C)C(C)n2c1nc1c2c(=O)n(CCCC)c(=O)n1C (stereo not drawn) [Compound V-9],10773,–
C=CCN1N=C(C)Cn2c1nc1c2c(=O)n(CCC)c(=O)n1C [Compound V-19],1995,–
CCCN1N=C(C)Cn2c1nc1c2c(=O)n(CCC)c(=O)n1C [Compound V-13],4602,–
Cc1c(C)n2c3c(=O)n(CCCO)c(=O)n(C)c3nc2n1CCc1ccccc1 [Compound I-48],5300,–
Cn1c(=O)c2nc(N3CCN(Cc4ccc5c(c4)OCCO5)CC3)[nH]c2n(C)c1=O [Compound B-7.8],–,No effect
C=C(C)CN1N=C(C)Cn2c1nc1c2c(=O)n(CC)c(=O)n1C [Compound V-22],3369,–
C/C=C/Cn1c(=O)c2c(nc3n(Cc4ccco4)c(C)cn23)n(C)c1=O [Compound I-52],6282,–
Cn1c(=O)c2nc(N3CCNCC3)[nH]c2n(C)c1=O [Compound B-2],–,No effect
Cc1cccc(-n2c(C)c(C)n3c4c(=O)n(C)c(=O)n(C)c4nc23)c1 [Compound I-5],13531,–
C=CCN1N=C(C)C(C)n2c1nc1c2c(=O)n(CCC)c(=O)n1C (stereo not drawn) [Compound V-15],4548,–
C=CCn1c(=O)c2c(nc3n(CC(C)C)c(C)c(C)n23)n(C)c1=O [Compound I-38],8563,–
CCCN1N=C(C)C(C)n2c1nc1c2c(=O)n(CCC)c(=O)n1C (stereo not drawn) [Compound V-16],5519,–
Cc1cn2c3c(=O)n(C)c(=O)n(C)c3nc2n1-c1cccnc1 [Compound A-5],–,No effect
CCCCn1c(=O)c2c(nc3n(CCN4CCOCC4)c(C)c(C)n23)n(C)c1=O [Compound I-51],9639,–

# Results, then the compound that gave them:
ΔSPQ (difference between maximum and minimum SPQ values) [RFU],SPQ EC50,SMILES
8746,–,CCCn1c(=O)c2c(nc3n2CCCN3c2ccc(C)cc2)n(C)c1=O [IV-6]
7993,–,C/C=C/Cn1c(=O)c2c(nc3oc(C(C)(C)C)cn32)n(C)c1=O [II-1]
2069,–,COc1ccc(N2CCN(Cc3nc4c(c(=O)n(C)c(=O)n4C)n3C(C)C)CC2)cc1 [III-6]
5826,–,Cn1c(=O)c2c3c(cnc2n(C)c1=O)C(=O)CC(c1ccccc1)C3 (stereo not drawn) [VI-3]
8353,–,C=CCn1c(Oc2ccc(Br)cc2)nc2c1c(=O)n(C)c(=O)n2C [Compound III-1]

# Same assay, conditions: CFBE41o- cells, 48 h; read-out: SPQ EC50
row,SMILES,EC50 [µM]
1,C=CCN1N=C(C)C(C)n2c1nc1c2c(=O)n(CCCC)c(=O)n1C (stereo not drawn) [Compound V-9],8.3
2,C=CCN1N=C(C)Cn2c1nc1c2c(=O)n(CCC)c(=O)n1C [Compound V-19],3.6
3,CCCN1N=C(C)Cn2c1nc1c2c(=O)n(CCC)c(=O)n1C [Compound V-13],> 30
4,Cc1c(C)n2c3c(=O)n(CCCO)c(=O)n(C)c3nc2n1CCc1ccccc1 [Compound I-48],3.3
5,C=C(C)CN1N=C(C)Cn2c1nc1c2c(=O)n(CC)c(=O)n1C [Compound V-22],6.5
6,C/C=C/Cn1c(=O)c2c(nc3n(Cc4ccco4)c(C)cn23)n(C)c1=O [Compound I-52],> 30
7,Cc1cccc(-n2c(C)c(C)n3c4c(=O)n(C)c(=O)n(C)c4nc23)c1 [Compound I-5],> 30
8,C=CCN1N=C(C)C(C)n2c1nc1c2c(=O)n(CCC)c(=O)n1C (stereo not drawn) [Compound V-15],> 30
9,C=CCn1c(=O)c2c(nc3n(CC(C)C)c(C)c(C)n23)n(C)c1=O [Compound I-38],7.8
10,CCCN1N=C(C)C(C)n2c1nc1c2c(=O)n(CCC)c(=O)n1C (stereo not drawn) [Compound V-16],> 30
11,CCCCn1c(=O)c2c(nc3n(CCN4CCOCC4)c(C)c(C)n23)n(C)c1=O [Compound I-51],> 30

# More lines, now with the values ahead:
row,EC50 [µM],SMILES
1,> 30,CCCn1c(=O)c2c(nc3n2CCCN3c2ccc(C)cc2)n(C)c1=O [IV-6]
2,12.4,C/C=C/Cn1c(=O)c2c(nc3oc(C(C)(C)C)cn32)n(C)c1=O [II-1]
3,5.1,COc1ccc(N2CCN(Cc3nc4c(c(=O)n(C)c(=O)n4C)n3C(C)C)CC2)cc1 [III-6]
4,6.3,Cn1c(=O)c2c3c(cnc2n(C)c1=O)C(=O)CC(c1ccccc1)C3 (stereo not drawn) [VI-3]
5,11.1,C=CCn1c(Oc2ccc(Br)cc2)nc2c1c(=O)n(C)c(=O)n2C [Compound III-1]

# Same assay, conditions: versus VX-809
row,SMILES,potency and efficacy compared with VX-809 in SPQ assay
1,CC1(C)Cc2c(sc3c2c(=O)n(CCO)c(=O)n3Cc2ccccc2)CO1 [Compound 1],superior potency and efficacy to VX-809

# Biological target: T2, delF508-CFTR chloride ion channels (Homo sapiens, UniProt P13569, DEL508-508)
# T2 construct: delF508-CFTR chloride ion channels in a high-resistance CF human airway epithelial cell monolayer with Compound 1; endogenous in cells
# T2 sequence (P13569 with tags, fused parts or gaps DEL508-508): as above
# Assay: Ussing chamber short-circuit current in high-resistance CF human airway epithelial cell monolayer
# Assay type: cell-based
# Settings: FIG. 15
# Description: An electrical assay was also performed to determine the functional rescue of delF508-CFTR to the apical cell membrane in a polarized epithelium using the compounds described herein. The metrics analyzed were the basal short-circuit Cl^− current, the change or delta Cl^− current stimulated by forskolin, the total stimulated Cl^− current (basal and forskolin), and the change or delta Cl^− current inhibited by GlyH101. For exemplary purposes, DMSO (100 nM) and VX-809 (100 nM equivalent) treatments were controls, and a CFCL corrector was tested (see FIG. 14).
# Only high-resistance cell monolayers (>800 to 1,000 Ohms per cm^2) were used in the experiments. Basal short-circuit current (ISC) was measured and documented. Amiloride was added to the apical side of the Ussing chamber to block any contribution of ENaC or other sodium or cation channels under basal or stimulated conditions. The effect of amiloride was negligible under these cell culture conditions. In the continued presence of amiloride (100 μM), forskolin (10 μM) was added to both sides of the monolayer to selectively open any delF508-CFTR chloride channels in the apical cell membrane. This activation step uncovered any remaining corrected delF508-CFTR chloride ion channels in the apical membrane of the polarized CF human bronchial epithelium. […]
row,SMILES,"potency and efficacy versus VX-809, short-circuit current"
1,CC1(C)Cc2c(sc3c2c(=O)n(CCO)c(=O)n3Cc2ccccc2)CO1 [Compound 1],superior potency and equivalent efficacy versus VX-809
